According to publication PMC10194981, “Chemosensory protein regulates the behavioural response of Frankliniella intonsa and Frankliniella occidentalis to tomato zonate spot virus–Infected pepper (Capsicum annuum)” (PLOS Pathogens, 2023):

How the values were obtained:
[1] = test system: fall webworm moth (Hyphantria cunea) antennae; parameters: method as in PMID 23166622; details: cited from earlier work
M. sexta larvae = test system: M. sexta larvae; parameters: method as in PMID 25261073; details: cited from earlier work
FoccCSP-Asp64Ala = FoccCSP-Asp64Ala (Frankliniella occidentalis, UniProt G4Y3X1, D64A); test: Fluorescence (1-NPN) binding and competitive binding assay, FoccCSP mutant
Protocol: (§1) The binding affinity of FintCSP1 and FoccCSP to the fluorescent probe N-phenyl-1-naphthylamine (1-NPN) was tested using a Spectramax M2 fluorescence spectrometer (Molecular Devices, USA) as reported previously. […] The 1-NPN/FintCSP1 or 1-NPN/FoccCSP mixture was excited at 280 nm, and the emission spectra were recorded at 415 nm. The binding constants (Kd) of FintCSP1 or FoccCSP to 1-NPN were calculated by Scatchard analysis using Prism 5 software (GraphPad, La Jolla, CA, USA). Assuming a protein activity of 100% and that the volatile compound binds to the protein in a 1:1 ratio at saturation, the dissociation constants (Ki) of FintCSP1 or FoccCSP for each ligand were calculated according to the IC50 (the concentration when the ligand replaces 50% of the probe) value of the volatile compounds. The Ki values were calculated according to the following equation: Ki = [IC50]/(1 + [1-NPN]/K1-NPN), where [1-NPN] is the free concentration of 1-NPN, and K1-NPN is the Kd of the 1-NPN/FintCSP1 or 1-NPN/FoccCSP.
(§2) To verify the key amino acids of FintCSP1 and FoccCSP that bind to cis-3-hexenal, six amino acid residues of FintCSP1 were mutated (Lys26Ala, Phe27Ala, Thr28Ala, Glu67Ala, Ser84Ala, and the negative control residue Val132Ala) and nine amino acid residues of FoccCSP were mutated (Lys26Ala, Phe27Ala, Thr28Ala, Thr29Ala, Tyr31Ala, Asp64Ala, Glu67Ala, Gln87Ala, and the negative control residue Val132Ala) with the Fast Mutagenesis System Kit (Transgen Biotech, Beijing, China) using the pET-30a/FintCSP1 and pET-30a/FoccCSP plasmid DNA as template, respectively. Specific primers were designed using Primer Premier 5.0 according to the instructions of the Fast Mutagenesis System Kit (S1 Table). After validation by sequencing, each recombinant variant protein was produced and purified as described above, and their binding affinity to cis-3-hexenal was measured as described above.

FoccCSP-Phe27Ala = FoccCSP-Phe27Ala (Frankliniella occidentalis, UniProt G4Y3X1, F27A); test: as above
Protocol: as §1, §2

FoccCSP-Thr28Ala = FoccCSP-Thr28Ala (Frankliniella occidentalis, UniProt G4Y3X1, T28A); test: as above
Protocol: as §1, §2

FoccCSP-Glu67Ala = FoccCSP-Glu67Ala (Frankliniella occidentalis, UniProt G4Y3X1, E67A); test: as above
Protocol: as §1, §2

FoccCSP-Thr29Ala = FoccCSP-Thr29Ala (Frankliniella occidentalis, UniProt G4Y3X1, T29A); test: as above
Protocol: as §1, §2

FintCSP1-Val132Ala = FintCSP1-Val132Ala (Frankliniella intonsa, UniProt A0A891LVF4, V132A); test: Fluorescence (1-NPN) binding and competitive binding assay, FintCSP1 mutant (negative control residue)
Protocol: (§3) The binding affinity of FintCSP1 and FoccCSP to the fluorescent probe N-phenyl-1-naphthylamine (1-NPN) was tested using a Spectramax M2 fluorescence spectrometer (Molecular Devices, USA) as reported previously. Volatile compounds and 1-NPN were first dissolved to a concentration of 1 mM in HPLC-grade methanol and dissolved to their indicated final concentration (2–20 μM) to titrate 2 μM protein solutions resuspended in 50 mM Tris-HCl (pH 7.4). The 1-NPN/FintCSP1 or 1-NPN/FoccCSP mixture was excited at 280 nm, and the emission spectra were recorded at 415 nm. The binding constants (Kd) of FintCSP1 or FoccCSP to 1-NPN were calculated by Scatchard analysis using Prism 5 software (GraphPad, La Jolla, CA, USA). Assuming a protein activity of 100% and that the volatile compound binds to the protein in a 1:1 ratio at saturation, the dissociation constants (Ki) of FintCSP1 or FoccCSP for each ligand were calculated according to the IC50 (the concentration when the ligand replaces 50% of the probe) value of the volatile compounds. The Ki values were calculated according to the following equation: Ki = [IC50]/(1 + [1-NPN]/K1-NPN), where [1-NPN] is the free concentration of 1-NPN, and K1-NPN is the Kd of the 1-NPN/FintCSP1 or 1-NPN/FoccCSP.
as §2, with “Specific primers were designed using Primer Premier 5.0 according to the instructions of the Fast Mutagenesis System Kit (S1 Table).” left out

[2] = molecular target: recombinant wild-type FoccCSP (Frankliniella occidentalis, UniProt G4Y3X1); test: Fluorescence (1-NPN) binding and competitive binding assay, wild-type FoccCSP; details: wild-type FoccCSP, displacement of 1-NPN, both 2 μM
Protocol: FintCSP1 and FoccCSP DNA were released from pEASY-T1/FintCSP1 and pEASY-T1/FoccCSP, respectively, by restriction digestion with BamHI and XhoI and cloned into the pET-30a vector (Invitrogen). The resulting construct was transformed into Transetta (DE3) Escherichia coli competent cells (Transgen). The production of recombinant FintCSP1 and FoccCSP was induced by addition of isopropyl-β-D-1-thiogalactopyranoside (IPTG, 0.2 mM) at 15°C and purified by Ni ion affinity chromatography (Sangon Biotech, Shanghai, China). The target protein was verified by 15% SDS-PAGE, and its concentration was determined with a BCA protein assay kit (Thermo Scientific, Rockford, IL, USA). The recombinant purified protein was stored at −20°C until use.
as §3

FoccCSP-Tyr31Ala = FoccCSP-Tyr31Ala (Frankliniella occidentalis, UniProt G4Y3X1, Y31A); test: Fluorescence (1-NPN) binding and competitive binding assay, FoccCSP mutant
Protocol: as §3, §2

FoccCSP-Lys26Ala = FoccCSP-Lys26Ala (Frankliniella occidentalis, UniProt G4Y3X1, K26A); test: as above
Protocol: as §3, §2

FoccCSP-Gln87Ala = FoccCSP-Gln87Ala (Frankliniella occidentalis, UniProt G4Y3X1, Q87A); test: as above
Protocol: as §3, §2

FoccCSP-Glu67Ala, sequence (G4Y3X1 entry or part of it E67A): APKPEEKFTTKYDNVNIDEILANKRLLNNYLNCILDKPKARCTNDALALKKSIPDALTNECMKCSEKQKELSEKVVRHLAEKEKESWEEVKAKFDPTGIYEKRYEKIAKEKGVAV
FoccCSP-Gln87Ala, sequence (G4Y3X1 entry or part of it Q87A): as the sequence (G4Y3X1 entry or part of it E67A) above, with A48E, Q68A counted along it
FoccCSP-Asp64Ala, sequence (G4Y3X1 entry or part of it D64A): as the sequence (G4Y3X1 entry or part of it E67A) above, with D45A, A48E counted along it
FoccCSP-Tyr31Ala, sequence (G4Y3X1 entry or part of it Y31A): as the sequence (G4Y3X1 entry or part of it E67A) above, with Y12A, A48E counted along it
FoccCSP-Lys26Ala, sequence (G4Y3X1 entry or part of it K26A): as the sequence (G4Y3X1 entry or part of it E67A) above, with K7A, A48E counted along it
FoccCSP-Phe27Ala, sequence (G4Y3X1 entry or part of it F27A): as the sequence (G4Y3X1 entry or part of it E67A) above, with F8A, A48E counted along it
FintCSP1-Val132Ala, sequence (A0A891LVF4 entry or part of it V132A): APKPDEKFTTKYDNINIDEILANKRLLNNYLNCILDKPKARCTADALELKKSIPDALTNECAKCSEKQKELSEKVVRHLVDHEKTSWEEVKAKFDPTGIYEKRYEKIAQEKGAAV
recombinant wild-type FoccCSP, sequence (G4Y3X1 entry or part of it): as the sequence (G4Y3X1 entry or part of it E67A) above, with A48E counted along it
FoccCSP-Thr28Ala, sequence (G4Y3X1 entry or part of it T28A): as the sequence (G4Y3X1 entry or part of it E67A) above, with T9A, A48E counted along it
FoccCSP-Thr29Ala, sequence (G4Y3X1 entry or part of it T29A): as the sequence (G4Y3X1 entry or part of it E67A) above, with T10A, A48E counted along it

Q: With `CC/C=C\CC=O` [cis-3-hexenal] as the molecule, how does the “effect on antennal sensitivity to pheromones (in words)” value [1] read?
A: The value was “raising the sensitivity”.

Q: And the “effect on M. sexta larvae (in words)” value (M. sexta larvae)?
A: The value was “feeding stimulant”.

Q: And the IC50 (FoccCSP-Asp64Ala)?
A: Its IC50 is 65.9 ± 0.79 µM.

Q: What about the Ki (FoccCSP-Asp64Ala) of the same molecule?
A: Its Ki is 62.2 ± 0.75 µM.

Q: What about the “binding affinity to cis-3-hexenal (in words)” value (“binding affinity” for short) (FoccCSP-Asp64Ala; FoccCSP-Asp64Ala compared to the wild-type protein) of the same molecule?
A: Its value is “significantly decreased binding affinities”.

Q: And the IC50 (FoccCSP-Phe27Ala)?
A: Its IC50 is > 100 µM.

Q: What about the “affinity for cis-3-hexenal (in words)” value (FoccCSP-Phe27Ala; FoccCSP-Phe27Ala) of the same molecule?
A: Its value is “no affinity”.

Q: What about the IC50 (FoccCSP-Thr28Ala) of the same molecule?
A: Its IC50 is > 100 µM.

Q: And the “affinity for cis-3-hexenal (in words)” value (FoccCSP-Thr28Ala; FoccCSP-Thr28Ala)?
A: Its value is “no affinity”.

Q: What about the IC50 (FoccCSP-Glu67Ala) of the same molecule?
A: Its IC50 is 92.9 ± 2.14 µM.

Q: What about the Ki (FoccCSP-Glu67Ala) of the same molecule?
A: The Ki was 83.7 ± 1.93 µM.

Q: What about the “binding affinity” value (FoccCSP-Glu67Ala; FoccCSP-Glu67Ala compared to the wild-type protein) of the same molecule?
A: Its value is “significantly decreased binding affinities”.

Q: And the IC50 (FoccCSP-Thr29Ala)?
A: The IC50 was > 100 µM.

Q: What about the “affinity for cis-3-hexenal (in words)” value (FoccCSP-Thr29Ala; FoccCSP-Thr29Ala) of the same molecule?
A: Its value is “no affinity”.

Q: What about the IC50 (FintCSP1-Val132Ala) of the same molecule?
A: Its IC50 is 39.24 ± 0.36 µM.

Q: What about the Ki (FintCSP1-Val132Ala) of the same molecule?
A: The Ki was 32.18 ± 0.29 µM.

Q: And the IC50 ([2]; 50 mM Tris-HCl pH 7.4)?
A: The IC50 was 28.8 ± 0.45 µM.

Q: What about the Ki ([2]; pH 7.4) of the same molecule?
A: Its Ki is 23.4 ± 0.36 µM.

Q: What about the IC50 (FoccCSP-Tyr31Ala) of the same molecule?
A: The IC50 was 43.9 ± 0.66 µM.

Q: What about the Ki (FoccCSP-Tyr31Ala) of the same molecule?
A: The Ki was 37.4 ± 0.56 µM.

Q: And the “binding affinity” value (FoccCSP-Tyr31Ala; FoccCSP-Tyr31Ala compared to the wild-type protein)?
A: The value was “significantly decreased binding affinities”.

Q: What about the IC50 (FoccCSP-Lys26Ala) of the same molecule?
A: The IC50 was 36 ± 0.79 µM.

Q: And the Ki (FoccCSP-Lys26Ala)?
A: Its Ki is 32.6 ± 0.71 µM.

Q: And the “binding affinity” value (FoccCSP-Lys26Ala; FoccCSP-Lys26Ala compared to the wild-type protein)?
A: Its value is “significantly decreased binding affinities”.

Q: What about the IC50 (FoccCSP-Gln87Ala) of the same molecule?
A: The IC50 was 47.47 ± 0.44 µM.

Q: And the Ki (FoccCSP-Gln87Ala)?
A: Its Ki is 43.68 ± 0.41 µM.

Q: And the “binding affinity” value (FoccCSP-Gln87Ala; FoccCSP-Gln87Ala compared to the wild-type protein)?
A: The value was “significantly decreased binding affinities”.
